ChEMBL document CHEMBL1201862, “PubChem BioAssay data set” (2004)
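Dose response: 5 concentrations. Exposure: 48 h. Format: 96-well plates. Endpoint: linear interpolation; highest concentration if not reached. GI50: concentration for 50% inhibition of growth.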 Active and inactive are the calls of the source. Cut-off read from the data, not from the text of the source: active = GI50 up to about 1.1 µM and inactive = higher.

Key:
Assay in all cases: NCI-60 cell line screen, 48 h
SK-MEL-2 = system: SK-MEL-2
COLO 205 = system: COLO 205
SW-620 = system: SW-620
SR = system: SR
786-0 = system: 786-0
SNB-75 = system: SNB-75
UACC-62 = system: UACC-62
M19-MEL = system: M19-MEL
HCT-116 = system: HCT-116
XF498 = system: XF498
LOX IMVI = system: LOX IMVI
ACHN = system: ACHN
Malme-3M = system: Malme-3M
SNB-19 = system: SNB-19
HCT-15 = system: HCT-15
HCC 2998 = system: HCC 2998
HT-29 = system: HT-29
SK-MEL-28 = system: SK-MEL-28
NCI-H226 = system: NCI-H226
NCI-H23 = system: NCI-H23
OVCAR-5 = system: OVCAR-5
NCI-H522 = system: NCI-H522
DLD-1 = system: DLD-1
DMS-114 = system: DMS-114
U-251 = system: U-251
UO-31 = system: UO-31
NCI-H460 = system: NCI-H460
EKVX = system: EKVX
HOP-62 = system: HOP-62
RPMI-8226 = system: RPMI-8226
SF-268 = system: SF-268
A498 = system: A498
A549 = system: A549
SN12C = system: SN12C
HL-60 = system: HL-60
IGROV-1 = system: IGROV-1
HOP-92 = system: HOP-92
OVCAR-8 = system: OVCAR-8
SF-295 = system: SF-295
CCRF-CEM = system: CCRF-CEM
K562 = system: K562
KM12 = system: KM12
SK-OV-3 = system: SK-OV-3
RXF 631 = system: RXF 631
HOP-18 = system: HOP-18
M14 = system: M14
RXF 393 = system: RXF 393
SF-539 = system: SF-539
KM-20L2 = system: KM-20L2
LXFL 529 = system: LXFL 529
MOLT-4 = system: MOLT-4
UACC-257 = system: UACC-257
SK-MEL-5 = system: SK-MEL-5
OVCAR-3 = system: OVCAR-3
TK-10 = system: TK-10

Measured: GI50

Cc1cccc2c1NC(c1c(C)[nH]c3ccccc13)C2 (stereo not given)
inactive: SK-MEL-2 > 100 µM | COLO 205 56 µM | SW-620 68.2 µM | SR > 100 µM | 786-0 > 100 µM | SNB-75 > 100 µM | UACC-62 78.2 µM | M19-MEL > 100 µM | HCT-116 > 100 µM | XF498 51.9 µM | LOX IMVI 80 µM | ACHN 94 µM | Malme-3M > 100 µM | SNB-19 > 100 µM | HCC 2998 > 100 µM | HT-29 > 100 µM | SK-MEL-28 > 100 µM | NCI-H226 80.5 µM | NCI-H23 > 100 µM | OVCAR-5 > 100 µM | NCI-H522 > 100 µM | DLD-1 > 100 µM | DMS-114 56.1 µM | U-251 > 100 µM | UO-31 64.4 µM | NCI-H460 > 100 µM | EKVX 82.6 µM | HOP-62 > 100 µM | RPMI-8226 > 100 µM | SF-268 > 100 µM | A498 > 100 µM | A549 > 100 µM | SN12C > 100 µM | HL-60 50.1 µM | IGROV-1 33.4 µM | HOP-92 1.41 µM | OVCAR-8 > 100 µM | SF-295 54.8 µM | CCRF-CEM 57.7 µM | K562 > 100 µM | KM12 62.4 µM | SK-OV-3 > 100 µM | RXF 631 > 100 µM | HOP-18 > 100 µM | M14 78.7 µM | RXF 393 56.4 µM | SF-539 > 100 µM | KM-20L2 > 100 µM | LXFL 529 > 100 µM | MOLT-4 63 µM | UACC-257 > 100 µM | SK-MEL-5 > 100 µM | OVCAR-3 86.7 µM | TK-10 > 100 µM
> 100 µM: HCT-15
